Laboratory results reported in US20070037756A1, “Compositions and methods for the prevention and treatment of circulatory conditions” (LEADTREK, INC, priority 2005, published 2007).

Key:
Rat PRP = assay: Assay of in Vitro Antiplatelet Aggregation (turbidimetry, rat PRP stimulated with ADP and collagen); type: cell-based; details: maximal aggregation induced by ADP and collagen
Procedure: Platelet aggregation was determined using methods and minor variations as described in Choo et al., Biol. Pharm. Bull. 25(10) 1328-1332 (2002) and Born et al., J. Physiol., 168, 178-195 (1963). For example, blood from rats was collected by cardiac puncture into a plastic flask containing 2.2% sodium citrate (1:9 v/v). Platelet-rich plasma (PRP) was prepared by centrifugation of the blood at 120×g for 15 min and further centrifuged at 850×g for 10 min to prepare platelet poor plasma (PPP). The supernatant was pooled and centrifuged at 600×g for 15 min at room temperature. The platelet pellets were washed with modified Tyrode-HEPES buffer (129 mM NaCl, 2.8 mM KCl, 8.9 mM NaHCO3, 0.8 mM MgCl2, 0.8 mM KH2PO4, 2 mM EGTA, 5.6 mM glucose, 10 mM HEPES, 0.35% BSA, pH 7.4) and centrifuged at 600×g for 15 min. Then platelet pellets were gently resuspended in Tyrode-HEPES buffer and used in the experiments.
Platelet aggregation was measured by turbidimetry using a dual-channel Whole Lumini-lonized Calcium Aggregometer (Chrono-Log Co., Ltd., Havertown, Pa., U.S.A.). Rat PRP ([…]) was incubated at 37° C. for 2 min in the aggregometer with stirring at 1200 rpm and then stimulated with ADP and collagen. […] Changes in light transmission were recorded for 10 min after stimulation with these agents. […]

male Sprague-Dawley rats = assay: Animal Model (In Vivo) Assay For Platelet Aggregation Activity using arteriovenous shunts; parameters: species or system rat; details: oral; for Thrombus weight (newly formed thrombus wet weight): glycerol glucoside derivative 50, 100 mg/kg, aspirin 30 mg/kg x 4 times, 120 min after treatment, shunt 15 minutes, saline 12.9 mg
Procedure: Assays for platelet aggregation activity using arteriovenous shunts were carried out as provided in Umetsu et al., “Effect Of 1-Methyl-2-Mercapto-5(3-Pyridyl)-Imidazole (KC-6141), An Antiaggregation Compound, On Experimental Thrombosis In Rats” Thromb Haemostasis 39:74-83 (1978); and Tang et al., “Anti-Thrombotic Activity Of PDR, A Newly Synthesized L-Arg Derivative, On Three Thrombosis Models In Rats” Thrombosis Research 110:127-133 (2003). Briefly, male Sprague-Dawley rats weighing 320-380 g were used after overnight fasting. The rats were administered orally with: i) a negative control (isotonic saline): ii) a glycerol glucoside derivative (50, 100 mg/kg); and iii) a positive control compound, aspirin (30 mg/kg x 4 times). A 75 min period occurred between each dose to allow the return of homeostasis.
The left jugular vein and the right carotid artery were cannulated with a 4 cm long polyethylene tube (o.d. 1 mm) while being infused with 50 μ/kg i.v. heparin. These catheters were then connected to the ends of a 15 cm long polyethylene tube (o.d. 2 mm) containing a 5 cm long suture silk thread (no. 4). Before the silk thread was placed in the polyethylene tube a pre-treatment wet weight was determined (i.e., a pre-thrombus formation weight). At 120 min after each drug treatment, the blood flow through the shunt was measured for 15 minutes. The silk thread, now containing newly formed thrombi, was gently removed, and a post-treatment wet weight was measured immediately. The newly formed thrombus wet weight was determined by subtracting the pre-treatment silk wet weight from the post-treatment silk wet weight. Thrombus weight for saline was 12.9 mg, for BH-2 (Regaloside C (2)) was 8.8 mg, and for aspirin was 7.1 mg (see FIG. 12).
The rate of thrombosis inhibition was calculated with the equation as follows: % Thrombosis inhibition=(A−A1)/A×100%
Where A was the newly formed thrombus wet weight of the control group (i.e., Saline), and A1 was the newly formed thrombus wet weight of the test derivative or positive control compound (i.e., aspirin).

Row | Structure (SMILES) | inhibition at 10 µM (Rat PRP) | % Thrombosis inhibition (male Sprague-Dawley rats; (A-A1)/A x 100% versus saline control, rat arteriovenous shunt) | Thrombus weight (newly formed thrombus wet weight) (male Sprague-Dawley rats)
1 | O=C(O)c1cc(O)c2c(c1)C(=O)c1cccc(O)c1C2=O [rhein] | 1.8% | – | –
2 | O=C(/C=C/c1ccc(O)c(O)c1)OC[C@@H](O)CO[C@@H]1O[C@H](CO)[C@@H](O)[C@H](O)[C@H]1O [BH-2, regaloside C] | – | 31.7% | 8.8 mg
3 | CC(=O)Oc1ccccc1C(=O)O [aspirin, acetylsalicylic acid, reference compound] | – | – | 7.1 mg
